Activity calls are given as the source filed them. No cut-off for these calls is given here.
How the values were obtained:
[1] = tested on: Streptococcus pneumoniae; assay: Antibacterial activity against high dose 1.5 x 10^7 CFU Streptococcus pneumoniae serotype 2 infected in semitherapeutic C57BL/6 mouse model assessed as reduction of bacteremiar at 6 mg/kg, ip measured after 3 days post infection; assay type: functional, organism-based; design: dose 6 mg/kg
[2] = tested on: Streptococcus pneumoniae; assay: Antibacterial activity against low dose 5 x 10^6 CFU Streptococcus pneumoniae serotype 2 infected in semitherapeutic C57BL/6 mouse model assessed as reduction of bacteremia at 6 mg/kg, ip measured after 5 day post infection; assay type: functional, organism-based; design: dose 6 mg/kg

SMILES: CCCCCCCCCC(=O)N[C@@H](Cc1c[nH]c2ccccc12)C(=O)N[C@H](CC(N)=O)C(=O)N[C@@H](CC(=O)O)C(=O)N[C@@H]1C(=O)NCC(=O)N[C@@H](CCCN)C(=O)N[C@@H](CC(=O)O)C(=O)N[C@H](C)C(=O)N[C@@H](CC(=O)O)C(=O)NCC(=O)N[C@H](CO)C(=O)N[C@@H]([C@H](C)CC(=O)O)C(=O)N[C@@H](CC(=O)c2ccccc2N)C(=O)O[C@@H]1C
- Activity [1]: Active
- Activity [2]: Active

Source: ChEMBL document CHEMBL1240356, “Efficacy profiles of daptomycin for treatment of invasive and noninvasive pulmonary infections with Streptococcus pneumoniae” (2010)
